# Values of other authors in patent US6054469A, “Substituted tetrahydropyridine derivatives acting on 5-HT receptors” (Merck Sharp & Dohme Ltd., priority 1995, dated 2000).
# Conditions: therapeutic doses
smiles,measurement,value
CNS(=O)(=O)Cc1ccc2[nH]cc(CCN(C)C)c2c1 [sumatriptan],adverse events on administration to humans,adverse cardiovascular events
